Measurements: patent US10399932B2, “Inhibitors of indoleamine-2,3-dioxygenase for the treatment of cancer” (BRISTOL-MYERS SQUIBB COMPANY, priority 2015, dated 2019)

Target: human IDO1 (Homo sapiens, UniProt P14902)
Assay: Assessment of human IDO-1 inhibitory activity in HEK cells (human IDO1/HEK293 cells, Ehrlich reagent, absorbance at 490 nm)
Format: cell-based
Design: expressed in transfected cells
Conditions: In Vitro Potency in the HEK Human IDO-1 Cellular Assay
Experimental: Exemplary compounds were tested for inhibition of IDO activity.
HEK293 cells were transfected with a pCDNA-based mammalian expression vector harboring human IDO1 cDNA (NM 002164.2) by electroporation. They were cultured in medium (DMEM with 10% FBS) containing 1 mg/ml G418 for two weeks. Clones of HEK293 cells that stably expressed human IDO1 protein were selected and expanded for IDO inhibition assay.
The human IDO1/HEK293 cells were seeded at 10,000 cells per 50 μL per well with RPMI/phenol red free media contains 10% FBS in a 384-well black wall clear bottom tissue culture plate (Matrix Technologies LLC) 100 nL of certain concentration of compound was then added to each well using ECHO liquid handling systems. The cells were incubated for 20 hours in 37° C. incubator with 5% CO2.
The compound treatments were stopped by adding trichloroacetic acid (Sigma-Aldrich) to a final concentration at 0.2%. The cell plate was further incubated at 50° C. for 30 minute. The equal volume supernatant (20 μL) and 0.2% (w/v) Ehrlich reagent (4-dimethylaminobenzaldehyde, Sigma-Aldrich) in glacial acetic acid were mixed in a new clear bottom 384-well plate. This plate was then incubated at room temperature for 30 minute. The absorbance at 490 nm was measured on Envision plate reader.
Compound IC50 values were calculated using the counts of 500 nM of a reference standard treatment as one hundred percent inhibition, and counts of no compound but DMSO treatment as zero percent inhibition.

human IDO1, sequence (P14902 whole entry): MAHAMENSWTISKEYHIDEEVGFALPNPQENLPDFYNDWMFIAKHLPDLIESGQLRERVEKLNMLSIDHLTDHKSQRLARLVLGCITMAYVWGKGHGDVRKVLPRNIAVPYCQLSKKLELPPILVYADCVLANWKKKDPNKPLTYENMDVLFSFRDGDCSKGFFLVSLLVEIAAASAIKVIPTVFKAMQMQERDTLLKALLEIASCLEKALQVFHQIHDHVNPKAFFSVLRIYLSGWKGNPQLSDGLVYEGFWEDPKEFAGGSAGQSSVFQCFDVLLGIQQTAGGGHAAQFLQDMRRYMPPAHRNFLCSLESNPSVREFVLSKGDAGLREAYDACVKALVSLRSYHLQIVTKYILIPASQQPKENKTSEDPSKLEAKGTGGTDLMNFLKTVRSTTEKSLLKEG

Row | Molecule | IC50 [nM]
1 | 3-(4-((1,1-dioxidotetrahydro-2H-thiopyran-4-yl)(ethyl)amino)-3-((4-fluorophenyl)amino)phenyl)-4-isopropoxybutanoic acid [Example 300] | < 50
2 | COCC(CC(=O)O)c1ccc(N(CC(C)C)C2CCC(OC)CC2)c(NC(=O)Nc2ccc(Cl)cc2F)c1 (racemic) [Example 1006, (+/−)-3-(3-(3-(4-Chloro-2-fluorophenyl)ureido)-4-(isobutyl((1r,4r)-4-methoxycyclohexyl)amino)phenyl)-4-methoxybutanoic acid] | < 5
3 | CCC(CC(=O)O)c1ccc(N(CC(C)C)C2CCCCC2)c(NC(=O)Cc2ccc(C)cc2)c1 (racemic) [Example 1084] | < 5
4 | CCC(CC(=O)O)c1ccc(N(CC(C)C)C2CCCCC2)c(NC(=O)Cc2ccc(C#N)cc2)c1 (racemic) [Example 1086] | < 5
5 | CCC(CC(=O)O)c1ccc(N(CCC(C)C)C2CCCCC2)c(NC(=O)Cc2ccc(F)cc2)c1 (racemic) [Example 1089] | > 50
6 | CCC(CC(=O)O)c1cc(F)c(N(CC(C)C)C2CCCCC2)c(NC(=O)Nc2ccc(C)cc2)c1 (racemic) [Example 1091] | < 5
7 | COCC(CC(=O)O)c1ccc(N(CC(C)C)C2CCC(OC)CC2)c(NC(=O)Nc2ccc(C)cc2)c1 (racemic) [Example 1147] | < 50
8 | COCC(CC(=O)OC)c1ccc(N(CC(C)C)C2CCC(OC)CC2)c(NC(=O)Nc2ccc(Cl)cc2F)c1 (racemic) [Example 1148] | > 50
9 | CCC(CC(=O)O)c1ccc(N2CC3CC2CN3Cc2ccccc2)c(NC(=O)Nc2ccc(C)cc2)c1 (single isomer, unassigned) [667 E1] | > 50
10 | CCC(CC(=O)O)c1ccc(N2CC3CC2CN3Cc2ccccc2)c(NC(=O)Nc2ccc(C)cc2)c1 (single isomer, unassigned) [667 E2] | > 50
11 | COCC(CC(=O)O)c1ccc(N(CC(C)C)C2CCCCC2)c(NC(=O)Nc2ccccc2F)c1 (single isomer, unassigned) [1125 E1] | < 5
12 | COCC(CC(=O)O)c1ccc(N(CC(C)C)C2CCCCC2)c(NC(=O)Nc2ccccc2F)c1 (single isomer, unassigned) [1125 E2] | < 5
13 | Cc1ccc(NC(=O)Nc2cc(C(CC(=O)O)C3CC3)ccc2N(CC(C)C)C2CCOCC2)cc1 (single isomer, unassigned) [1202 E1] | < 5
14 | Cc1ccc(NC(=O)Nc2cc(C(CC(=O)O)C3CC3)ccc2N(CC(C)C)C2CCOCC2)cc1 (single isomer, unassigned) [1202 E2] | < 5
15 | CC(CC(=O)O)c1ccc(N(CC(C)(C)O)C2CCCCC2)c(Nc2ccc(Cl)c(OCC(F)(F)F)c2)c1 (single isomer, unassigned) [Example 55, 3-(3-((4-chloro-3-(2,2,2-trifluoroethoxy)phenyl)amino)-4-(cyclohexyl(2-hydroxy-2-methylpropyl)amino)phenyl) butanoic acid] | > 50
16 | CCOc1ncc(Nc2cc(C(CC)CC(=O)O)ccc2N(CC)C2CCCOC2)cn1 (single isomer, unassigned) [Example 72, 3-(3-((2-ethoxypyrimidin-5-yl)amino)-4-(ethyl(tetrahydro-2H-pyran-3-yl)amino)phenyl)pentanoic acid] | < 5
17 | CCC(CC(=O)O)c1cc(F)c(N(CC(C)C)CC(C)C)c(Nc2ccc3nc(C)sc3c2)c1 (single isomer, unassigned) [Example 111, 3-(4-(diisobutylamino)-3-fluoro-5-((2-methylbenzo [d]thiazol-6-yl)amino)phenyl)pentanoic acid] | > 50
18 | CCc1ccc(Nc2cc(C(CC)CC(=O)O)cc(F)c2N(CC(C)C)CC(C)C)cc1 (single isomer, unassigned) [Example 112, 3-(4-(diisobutylamino)-3-((4-ethylphenyl)amino)-5-fluorophenyl)pentanoic acid] | < 50
19 | CCOc1ccc(Nc2cc(C(CC)CC(=O)O)cc(F)c2N(CC(C)C)CC(C)C)cc1 (single isomer, unassigned) [Example 113, 3-(4-(diisobutylamino)-3-((4-ethoxyphenyl)amino)-5-fluorophenyl)pentanoic acid] | < 50
20 | CCC(CC(=O)O)c1cc(F)c(N(CC(C)C)CC(C)C)c(Nc2ccc(OCC(F)(F)F)cc2)c1 (single isomer, unassigned) [Example 114, 3-(4-(diisobutylamino)-3-fluoro-5-((4-(2,2,2-trifluoroethoxy)phenyl)amino)phenyl)pentanoic acid] | > 50
21 | CCC(CC(=O)O)c1cc(F)c(N(CC(C)C)CC(C)C)c(Nc2ccc(Cl)cc2)c1 (single isomer, unassigned) [Example 115, 3-(3-((4-chlorophenyl)amino)-4-(diisobutylamino)-5-fluorophenyl)pentanoic acid] | < 5
22 | CCC(CC(=O)O)c1cc(F)c(N(CC(C)C)CC(C)C)c(Nc2ccc(F)cc2)c1 (single isomer, unassigned) [Example 116, 3-(4-(diisobutylamino)-3-fluoro-5-((4-fluorophenyl)amino)phenyl)pentanoic acid] | < 5
23 | CCC(CC(=O)O)c1cc(F)c(N(CC(C)C)CC(C)C)c(Nc2ccc3c(c2)OC(F)(F)O3)c1 (single isomer, unassigned) [Example 117, 3-(3-((2,2-difluorobenzo [d][1,3]dioxol-5-yl)amino)-4-(diisobutylamino)-5-fluorophenyl)pentanoic acid] | < 5
24 | CCC(CC(=O)O)c1cc(F)c(N(CC(C)C)CC(C)C)c(Nc2cnc(OC)nc2)c1 (single isomer, unassigned) [Example 120, 3-(4-(diisobutylamino)-3-fluoro-5-((2-methoxypyrimidin-5-yl)amino)phenyl) pentanoic acid] | < 5
25 | CCC(CC(=O)O)c1cc(F)c(N(CC(C)C)CC(C)C)c(Nc2ccnc(N3CCOCC3)n2)c1 (single isomer, unassigned) [Example 121, 3-(4-(diisobutylamino)-3-fluoro-5-((2-morpholinopyrimidin-4-yl)amino)phenyl) pentanoic acid] | > 50
26 | CCC(CC(=O)O)c1cc(F)c(N(CC(C)C)CC(C)C)c(Nc2ccc(OCC3CC3)cc2)c1 (single isomer, unassigned) [Example 122, 3-(3-((4-(cyclopropylmethoxy)phenyl)amino)-4-(diisobutylamino)-5-fluorophenyl)pentanoic acid] | < 50
27 | CCC(CC(=O)O)c1cc(F)c(N(CC(C)C)CC(C)C)c(Nc2ccc(C#N)cc2)c1 (single isomer, unassigned) [Example 123, 3-(3-((4-cyanophenyl)amino)-4-(diisobutylamino)-5-fluorophenyl)pentanoic acid] | < 5
28 | CCC(CC(=O)O)c1cc(F)c(N(CC(C)C)CC(C)C)c(NC(=O)c2ccc(Cl)cc2)c1 (single isomer, unassigned) [Example 128, 3-(3-(4-Chlorobenzamido)-4-(diisobutylamino)-5-fluorophenyl)pentanoic acid] | > 50
29 | CC(C)CN(CC(C)C)c1c(F)cc(C(CC(=O)O)c2ccccc2)cc1Nc1ccc(Cl)cc1 (single isomer, unassigned) [Example 131, 3-(3-((4-chlorophenyl)amino)-4-(diisobutylamino)-5-fluorophenyl)-3-phenylpropanoic acid] | < 50
